Reference: patent US4720495A, “Benzo[ij]quinolizine-2-carboxylic acids useful for treating bacterial infection” (priority 1985, dated 1988)
Converted amounts (≈) assume the structure as drawn.

How the values were obtained:
[1] = tested on: Bacillus subtilis ATCC 6633; assay: minimal inhibitory concentration, in vitro antibacterial activity; assay type: cell-based; settings: ATCC6633, 37° C., 20 hours
Protocol: (§1) The in vitro antibacterial activities of typical examples of the present compounds [I] were evaluated in terms of the minimal inhibitory concentration defined as the lowest concentration of the compound preventing the bacterial growth. The Gram-positive bacteria used as test microorganisms included Bacillus subtilis, Staphylococcus aureus and Streptococcus faecalis, and the Gram-negative bacteria used as test microorganisms included Escherichia coli, Enterobacter cloacae, Klebsiella pneumoniae, Proteus vulgaris, Pseudomonas aeruginosa, Serratia marcescens and Salmonella enteritidis. The minimal inhibitory concentration (cultured at 37° C. for 20 hours) was determined according to the standard method prescribed by the Japan Society of Chemotherapy (CHEMOTHERAPY, Vol. 29, No. 1, p. 76, 1981). The following compounds were used as typical examples of the present compounds [I]. At the end of the chemical name of each compound, its tentative designation is given in Parentheses.
(§2) For purposes of comparison, the in vitro antibacterial activities of ofloxacin, OPC-7241 and compound α were evaluated according to the same method as described above and the test results thus obtained are also shown in Table 1.

Enterobacter cloacae 963 = assay: as above; assay type: cell-based; settings: 37° C., 20 hours
Protocol: as §1, §2

Escherichia coli CI-304 [2] = assay: as above; assay type: cell-based; settings: CI304, 37° C., 20 hours
Protocol: as §1, §2

[3] = tested on: Escherichia coli NIHJ JC-2; assay: as above; assay type: cell-based; settings: NIHJJC2, 37° C., 20 hours
Protocol: as §1, §2

[4] = tested on: Klebsiella pneumoniae PCI 602; assay: as above; assay type: cell-based; settings: PCI602, 37° C., 20 hours
Protocol: as §1, §2

[5] = tested on: Proteus vulgaris ATCC 13315; assay: as above; assay type: cell-based; settings: ATCC13315, 37° C., 20 hours
Protocol: as §1, §2

[6] = tested on: Pseudomonas aeruginosa NCTC 10490; assay: as above; assay type: cell-based; settings: NCTC10490, 37° C., 20 hours
Protocol: as §1, §2

[7] = tested on: Salmonella enteritidis G14; assay: as above; assay type: cell-based; settings: Salmonella enterica, 37° C., 20 hours
Protocol: as §1, §2

[8] = tested on: Serratia marcescens IAM 1184; assay: as above; assay type: cell-based; settings: IAM1184, 37° C., 20 hours
Protocol: as §1, §2

[9] = tested on: Staphylococcus aureus FDA 209P JC-1; assay: as above; assay type: cell-based; settings: FDA209P, 37° C., 20 hours
Protocol: as §1, §2

[10] = tested on: Streptococcus faecalis AHU 1085; assay: as above; assay type: cell-based; settings: Enterococcus faecalis, AHU1085, 37° C., 20 hours
Protocol: as §1, §2

[11] = enteral absorbability, serum concentration after oral administration to mice; assay type: in vivo; settings: mouse, 50 mg/kg orally, fasted male ICR mice; for concentration at 0.5 h: 30 min.
Protocol: Using male ICR mice fasted overnight (weighing 20±1 g), the enteral absorbability of some typical examples of the present compounds [I] was tested. This test was carried out by administering 50 mg/kg of each test compound orally to mice and determining its serum concentration 30 minutes, 1 hour, 2 hours and 4 hours after administration. Five mice were used for each test point. At each test point, whole blood was collected from the mice by cardiac puncture and used to prepare serum samples. Concentrations of the test compounds in serum samples were determined by the paper disc method using Escherichia coli CI-304 as the test microorganism.
For purposes of comparison, the enteral absorbability of ofloxacin and OPC-7241 was tested in the same manner as described above and the results thus obtained are also shown in Table 2.

Escherichia coli CI-304 [12] = assay: therapeutic effect on experimentally induced infection in mice; assay type: in vivo, Escherichia coli CI-304 in male ddY strain mice; settings: CI304, po, 168 h, orally, one hour after inoculation, survival after 7 days
Protocol: Using male ddY strain mice infected with Escherichia coli CI-304 (in groups of five; weighing 20±1 g), the therapeutic effect of some typical examples of the present compounds [I] was tested. The therapeutic effect was evaluated by administering each test compound orally to infected mice and calculating ED50 from the number of mice surviving after the lapse of 7 days. Infected mice were prepared by suspending cells of the aforesaid Escherichia coli strain in a 5% mucin solution and injecting this suspension into the peritoneal cavity of mice. The dose of the bacterial cells was ten times the minimal lethal dose which had previously been determined by a preliminary test. One hour after inoculation of the bacterial cells, each test compound was administered orally to the mice.
For purposes of comparison, ofloxacin and OPC-7241 were tested in the same manner as described above and the results thus obtained are also shown in Table 3.

MIC [1] [µg/mL]	MIC (Enterobacter cloacae 963) [µg/mL]	MIC (Escherichia coli CI-304 [2]) [µg/mL]	MIC [3] [µg/mL]	MIC [4] [µg/mL]	MIC [5] [µg/mL]	MIC [6] [µg/mL]	MIC [7] [µg/mL]	MIC [8] [µg/mL]	MIC [9] [µg/mL]	MIC [10] [µg/mL]	concentration at 0.5 h [11] [ng/mL]	concentration at 1 h [11] [ng/mL]	concentration at 2 h [11] [ng/mL]	concentration at 4 h [11] [ng/mL]	SMILES	ED50 (Escherichia coli CI-304 [12]) [mg/kg]
0.2 (≈ 0.495 µM)	0.2 (≈ 0.495 µM)	0.1 (≈ 0.248 µM)	0.2 (≈ 0.495 µM)	0.1 (≈ 0.248 µM)	0.2 (≈ 0.495 µM)	0.78 (≈ 1.93 µM)	0.78 (≈ 1.93 µM)	3.13 (≈ 7.75 µM)	0.39 (≈ 0.966 µM)	1.56 (≈ 3.86 µM)	20200	15900	7700	4500	CCN1CCN(c2c(Cl)cc3c(=O)c(C(=O)O)cn4c3c2C(=O)CC4C)CC1 (stereo not shown) [Compound 9, 9-Chloro-5-methyl-8-(4-ethyl-1-piperazinyl) -6,7-dihydro-1,7-dioxo-1H, 5H-benzo[ij]quinolizine-2-carboxylic acid]	
0.1 (≈ 0.258 µM)	0.2 (≈ 0.516 µM)	0.1 (≈ 0.258 µM)	0.2 (≈ 0.516 µM)	0.1 (≈ 0.258 µM)	0.39 (≈ 1.01 µM)	1.56 (≈ 4.03 µM)	0.78 (≈ 2.01 µM)	3.13 (≈ 8.08 µM)	0.78 (≈ 2.01 µM)	3.13 (≈ 8.08 µM)	20800	15800	7200	5300	CC1CN(c2c(F)cc3c(=O)c(C(=O)O)cn4c3c2C(=O)CC4C)CC(C)N1 (stereo not shown) [Compound 11, 9-Fluoro-5-methyl-8-(3,5-dimethyl-1-piperazinyl) -6,7-dihydro-1,7-dioxo-1H, 5H-benzo[ij]quinolizine-2-carboxylic acid]	
0.2 (≈ 0.535 µM)	0.2 (≈ 0.535 µM)	0.2 (≈ 0.535 µM)	0.1 (≈ 0.267 µM)	0.1 (≈ 0.267 µM)	0.1 (≈ 0.267 µM)	1.56 (≈ 4.17 µM)	1.56 (≈ 4.17 µM)	1.56 (≈ 4.17 µM)	0.2 (≈ 0.535 µM)	0.78 (≈ 2.09 µM)	13800	12700	8400	5000	CC1CN(c2c(Cl)cc3c(=O)c(C(=O)O)cn4c3c2C=CC4C)CCN1 (stereo not shown) [Compound 31, 9-Chloro-5-methyl-8-(3-methyl-1-piperazinyl) -1-oxo-1H, 5H-benzo[ij]quinolizine-2-carboxylic acid]	
0.1	0.78	0.2	0.39	0.1	0.1	0.78	0.78	1.56	0.39	1.56					CC1C=Cc2c(N3CCN(C)CC3)c(F)cc3c(=O)c(C(=O)O)cn1c23.Cl (stereo not shown) [Compound 37, 9-Fluoro-5-methyl-8-(4-methyl-1-piperazinyl) -1-oxo-1H, 5H-benzo[ij]quinolizine-2-carboxylic acid hydrochloride]	

Continued, molecule first:

SMILES	MIC [1] [µg/mL]	MIC (Enterobacter cloacae 963) [µg/mL]	MIC (Escherichia coli CI-304 [2]) [µg/mL]	MIC [3] [µg/mL]	MIC [4] [µg/mL]	MIC [5] [µg/mL]	MIC [6] [µg/mL]	MIC [7] [µg/mL]	MIC [8] [µg/mL]	MIC [9] [µg/mL]	MIC [10] [µg/mL]	concentration at 0.5 h [11] [ng/mL]	concentration at 1 h [11] [ng/mL]	concentration at 2 h [11] [ng/mL]	concentration at 4 h [11] [ng/mL]	ED50 (Escherichia coli CI-304 [12]) [mg/kg]
CC1CC(=O)c2c(N3CCN(C)CC3)c(F)cc3c(=O)c(C(=O)O)cn1c23 (stereo not shown) [Compound 3, 9-Fluoro-5-methyl-8-(4-methyl-1-piperazinyl)-6,7-dihydro-1,7-dioxo-1H, 5H-benzo[ij]quinolizine-2-carboxylic acid]	0.1 (≈ 0.268 µM)	0.2 (≈ 0.536 µM)	0.1 (≈ 0.268 µM)	0.2 (≈ 0.536 µM)	0.1 (≈ 0.268 µM)	0.2 (≈ 0.536 µM)	0.78 (≈ 2.09 µM)	0.78 (≈ 2.09 µM)	1.56 (≈ 4.18 µM)	0.39 (≈ 1.04 µM)	0.78 (≈ 2.09 µM)	24200	22400	12600	8400	0.52
CC1CN(c2c(F)cc3c(=O)c(C(=O)O)cn4c3c2C(=O)CC4C)CCN1 (stereo not shown) [Compound 16, 9-fluoro-5-methyl-8-(3-methyl-1-piperazinyl)-6,7-dihydro-1,7-dioxo-1H, 5H-benzo[ij]quinolizine-2-carboxylic acid]	0.2 (≈ 0.536 µM)	0.2 (≈ 0.536 µM)	0.1 (≈ 0.268 µM)	0.2 (≈ 0.536 µM)	0.1 (≈ 0.268 µM)	0.2 (≈ 0.536 µM)	0.78 (≈ 2.09 µM)	0.78 (≈ 2.09 µM)	1.56 (≈ 4.18 µM)	0.2 (≈ 0.536 µM)	0.78 (≈ 2.09 µM)	16400	13600	8100	4800	0.71
CC1CN(c2c(F)cc3c(=O)c(C(=O)O)cn4c3c2C=CC4C)CCN1 (stereo not shown) [Compound 29, 9-Fluoro-5-methyl-8-(3-methyl-1-piperazinyl) -1-oxo-1H, 5H-benzo[ij]quinolizine-2-carboxylic acid]	0.2 (≈ 0.56 µM)	0.2 (≈ 0.56 µM)	0.1 (≈ 0.28 µM)	0.1 (≈ 0.28 µM)	0.1 (≈ 0.28 µM)	0.1 (≈ 0.28 µM)	1.56 (≈ 4.37 µM)	0.78 (≈ 2.18 µM)	0.78 (≈ 2.18 µM)	0.2 (≈ 0.56 µM)	0.78 (≈ 2.18 µM)	15600	14400	9800	4200	0.69
CC1CC(=O)c2c(N3CCN(C)CC3)c(F)cc3c(=O)c(C(=O)O)cn1c23.Cl.O (stereo not shown) [Compound 35, 9-Fluoro-5-methyl-8-(4-methyl-1-piperazinyl) -6,7-dihydro-1,7-dioxo-1H, 5H-benzo[ij]quinolizine-2-carboxylic acid hydrochloride monohydrate]	0.1	0.2	0.1	0.2	0.1	0.2	0.78	0.78	1.56	0.39	0.78	24500	22000	11800	8500	
CC1CN(c2c(F)cc3c(=O)c(C(=O)O)cn4c3c2C(=O)CC4C)CCN1C.Cl.O (stereo not shown) [Compound 38, 9-fluoro-5-methyl-8-(3,4-dimethyl-1-piperazinyl)-6,7-dihydro-1,7-dioxo-1H,5H-benzo[ij]quinolizine-2-carboxylic acid hydrochloride monohydrate]	0.1	0.2	0.1	0.2	0.1	0.1	1.56	0.78	1.56	0.78	0.78	26700	24100	13500	9000	
CC1CN(c2c(F)cc3c(=O)c(C(=O)O)cn4c3c2C(=O)CC4C)CC(C)N1C.Cl.O (stereo not shown) [Compound 39, 9-Fluoro-5-methyl-8-(3,4,5-trimethyl-1-piperazinyl) -6,7-dihydro-1,7-dioxo-1H, 5H-benzo[ij]quinolizine-2-carboxylic acid hydrochloride monohydrate]	0.2	0.39	0.2	0.39	0.1	0.2	3.13	0.78	1.56	0.39	0.78					
